{"source": "patent US20090117199A1", "about": "“Method of treatment of cancer” (priority 1998, published 2009)", "key": {"[1]": {"test": "Partitioning coefficient of Rose Bengal, saline/1-octanol, effect of electrolyte concentration", "conditions": "0.5 mg/mL RB, approx. 1 day; for Kp: Partitioning coefficient (Kp)", "source_text": "After mixing, the agent was allowed to partition for approximately 1 day. Based on absorbance measurements at 550 nm for the aqueous phase and 564 nm for the organic phase, the percentage of agent in each phase was obtained."}, "[2]": {"test": "Partitioning coefficient of RB, 1-octanol/0.9% saline, effect of pH", "protocol": "The partition coefficient of RB was assessed over a range of pH values. The experiments were conducted by titrating RB solutions, measuring pH, then placing aliquots of the solutions into vials containing both organic (1-octanol) and aqueous (0.9% saline) phases. After mixing, the agents were allowed to partition for approximately 1 day. Based on absorption measurements (at the same wavelengths used in Experiment 1), the percentage of agent in each phase, the Kp and LogD (log of Kp) was reported.\nExperiment 1 was conducted using a stock solution of 0.42 mg/mL RB, whereas Experiment 3 was conducted using a concentration of 0.08 mg/mL."}, "[3]": {"test": "Critical solubility of Rose Bengal in saline (cloudiness, absorbance at 1000 nm)", "type": "physicochemical", "protocol": "Solutions of RB at different concentrations were prepared at different sodium chloride concentrations. Saline 0.9% USP sodium chloride solution from Hospira, having a pH of 5.5, was used as a stock solution. Solutions having different sodium chloride concentrations were obtained by the addition of calculated amounts of sodium chloride.\nThe prepared RB/sodium chloride solutions were shaken for 1 hour and absorbance measurements were taken at 1000 nm to determine cloudiness. 1000 nm was chosen as this is in the near infra red where RB has negligible absorbance. Solution cloudiness was difficult to detect visually due to the very dark red color.\nThe following solutions were evaluated: • 1. 20% RB in saline concentrations of 1.0%, 1.5%, 1.6%, 1.7%, 1.8%, 1.9%, 2.0%, 2.5%, 2.6%, 2.7% and 2.9%; • 2. 15% RB in saline concentrations of […]; • 3. 10% RB in saline concentrations of 2.0%, 2.5%, 3.0% and 3.2%; and • 4. 40%, 45%, 50%, 55% and 60% solutions of RB in 0.9% saline."}, "[4]": {"test": "Biodistribution (pharmacokinetic and toxicokinetic) after single IL injection in A375 tumor", "type": "in vivo, nu/nu mice", "conditions": "single IL injection of 1% or 6% RB", "protocol": "Growth control and sham treatment groups received no injection. All dosing was performed on Study Day 1.\nPharmacokinetic and toxicokinetic data from RB-treated tumors illustrates that a single IL injection of RB leads to localized retention of drug tumor tissue. This is illustrated in FIGS. 4 and 5, which show concentration of RB in tumor tissue, peritumor tissue and blood for time points ranging from 0.5 hr to 360 hr (15 days) post injection."}, "[5]": {"test": "Local tolerance, single subcutaneous injection into normal tissue", "protocol": "The local tolerance study was conducted using female Crl:SKH-1-hrBR hairless mice (Charles river), at least 6 weeks of age and 19-27 g at study Day 1.\nAll dosing was performed on Study Day 1. Follow-up examination of mice was conducted at regular intervals and the test terminated on either day 4 (3 animal from each group) or Day 15 (the remaining three animals).\nClinical observations were recorded daily (including dermal scoring using the Draize scoring system). Upon sacrifice, animals were subjected to a comprehensive necroscopy. Tissue samples from the injection site (and surrounding tissue) were obtained and examined histologically."}, "MCF-7 [ER−] tumors": {"tested_on": "MCF-7 [ER−] tumors", "test": "Tumor response to IL 10% RB in saline, report 020110.01B", "type": "in vivo, BALB/c Nude Mice", "conditions": "10% RB IL 25-50 μL/tumor Qd × 1; within 21 days; 4/group"}, "T-47D [ER−] tumors": {"tested_on": "T-47D [ER−] tumors", "test": "Tumor response to IL 10% RB in saline, report 020110.01B", "type": "in vivo, BALB/c Nude Mice", "conditions": "10% RB IL 25-50 μL/tumor Qd × 1; long passage T-47D [ER−]; 4/group"}, "[6]": {"tested_on": "spontaneous breast tumors", "test": "Tumor response to IL 10% RB in saline, report 020626.01C", "type": "in vivo, Neu+/+ x (1988A2Kb x Neu+/+) mice", "conditions": "10% RB IL 50 μL/tumor Qd × 1"}, "Murine Hepa I-6 tumors": {"tested_on": "Murine Hepa I-6 tumors", "test": "Tumor response to IL 10% RB in saline, report 020111.01B", "type": "in vivo, BALB/c Nude Mice", "conditions": "IL 30-50 μL/tumor Qd × 1; 8/group"}, "Murine Hepa 1-6 tumors": {"tested_on": "Murine Hepa 1-6 tumors", "test": "Tumor response to IL 10% RB in saline, report 051016.02B", "type": "in vivo, BALB/c Nude Mice", "conditions": "10% RB 45 μL/tumor Qd × 1"}, "[7]": {"tested_on": "H69Ar human resistant SCLC tumors", "test": "Tumor response to IL 10% RB in saline, report 051017.01B", "type": "in vivo, Nu/nu Nude Mice", "conditions": "10% RB 45 μL/tumor Qd × 1; 24 hours post injection and over 7 days of observation"}, "[8]": {"test": "Kp of RB with and without phosphate buffer", "type": "physicochemical", "source_text": "This may be compared to 66.7 in the absence of phosphate buffer, in which case the pH would have been between about 6 to about 6.5."}, "[9]": {"conditions": "cited from earlier work"}, "[10]": {"conditions": "cited from earlier work", "remark": "listed apart in the source"}}, "note": "“Also recorded” adds a separate entry of the source.", "data": [{"smiles": "O=C([O-])c1c(Cl)c(Cl)c(Cl)c(Cl)c1-c1c2cc(I)c(=O)c(I)c-2oc2c(I)c([O-])c(I)cc12.[Na+].[Na+]", "note": "[RB, 4,5,6,7-Tetrachloro-2′,4′,5′,7′-tetraiodofluorescein]", "values": [{"measurement": "% Partitioning in Octanol", "setting": "[1]; 0.00% saline", "result": "75.79 ± 1.75", "unit": "%"}, {"measurement": "% Partitioning in Octanol", "setting": "[1]; 0.50% saline", "result": "95.13 ± 1.43", "unit": "%"}, {"measurement": "% Partitioning in Octanol", "setting": "[1]; 0.90% saline", "result": "98.52 ± 0.26", "unit": "%"}, {"measurement": "% Partitioning in Octanol", "setting": "[1]; 2.50% saline", "result": "99.35 ± 0.28", "unit": "%"}, {"measurement": "Kp", "setting": "[1]; 0.00% saline", "result": "3.14 ± 0.29"}, {"measurement": "Kp", "setting": "[1]; 0.50% saline", "result": "20.8 ± 6.77"}, {"measurement": "Kp", "setting": "[1]; 0.90% saline", "result": "68.2 ± 4.43"}, {"measurement": "Kp", "setting": "[1]; 2.50% saline", "result": "215 ± 105"}, {"measurement": "Kp", "setting": "[1]; […] saline", "result": "44.2 ± 5.52"}, {"measurement": "% Partitioning in Octanol", "setting": "[1]; […] saline", "result": "97.77 ± 0.25", "unit": "%"}, {"measurement": "solubility", "setting": "[2]", "result": 195, "unit": "µg/mL"}, {"measurement": "partitioning coefficient versus pH", "setting": "[2]; below a pH of about 4.4", "result": "rapidly increases"}, {"measurement": "solubility of RB in the aqueous phase", "setting": "[2]; below a pH of about 4.4 (lactone form)", "result": "almost complete insolubility"}, {"measurement": "partitioning coefficient versus pH", "setting": "[2]; pH range about 4 to about 10, 1-octanol/0.9% saline", "result": "consistent"}, {"measurement": "solution stability", "setting": "[3]; RB solutions within the therapeutic amounts", "result": "stable"}, {"measurement": "RB concentration that can be achieved", "setting": "[3]; in 0.9% saline", "result": "up to 45%"}, {"measurement": "persistence of markedly elevated RB levels in tumor samples", "setting": "[4]; post-injection", "result": "at least 8 days"}, {"measurement": "mean levels of RB in blood", "setting": "[4]; 0.5 hr to 360 hr post injection", "result": "≤ 3", "unit": "µg/g"}, {"measurement": "fatalities", "setting": "[5]; SC, 2000 mg/kg study group (days 2 and 3), N=6", "result": "two fatalities"}, {"measurement": "swelling at the injection site", "setting": "[5]; SC, 250 and 500 mg/kg", "result": "Swelling was also noted in the injection site for most animals"}, {"measurement": "injection site effect", "setting": "[5]; SC, 1250-2000 mg/kg", "result": "massive necrosis at the injection site"}, {"measurement": "histology of injection site", "setting": "[5]; SC, <500 mg RB kg body weight, days 4 and 15", "result": "focal necrosis at the injection site"}, {"measurement": "histological necrosis in normal tissue", "setting": "[5]; SC, dosages up to 250 mg/kg at 1 days post administration", "result": "no histological evidence of necrosis"}, {"measurement": "clinical outcome, local tolerance", "setting": "[5]; SC, up to 500 mg RB/kg body weight (10%)", "result": "mild side effects primarily limited to localized discoloration of the injection site; also recorded: only mild clinical effects"}, {"measurement": "systemic effects", "setting": "[5]; lower dosage groups (below 2000 mg/kg)", "result": "No systemic effects"}, {"measurement": "kidney lesions", "setting": "[5]; one of the two fatalities in Group 6 (2000 mg/kg)", "result": "mild degeneration of the kidney"}, {"measurement": "liver lesions", "setting": "[5]; the two fatalities in Group 6 (2000 mg/kg)", "result": "mild to moderate degeneration of the liver"}, {"measurement": "tumors completely ablated", "setting": "MCF-7 [ER−] tumors", "result": "[ER+] (4/4), MCF-7 [ER−] (4/4),"}, {"measurement": "tumors ablated", "setting": "T-47D [ER−] tumors", "result": "(3/4)."}, {"measurement": "tumor response", "setting": "[6]", "result": "IL RB ablated spontaneous breast"}, {"measurement": "damage/necrosis to peripheral normal tissue", "setting": "Murine Hepa I-6 tumors", "result": "peripheral normal tissue (0/8)"}, {"measurement": "tumors fully ablated", "setting": "Murine Hepa 1-6 tumors; 3 days post injection, 10/group", "result": "IL RB fully ablated 8/10 tumors 3"}, {"measurement": "partial responses (number of tumors)", "setting": "Murine Hepa 1-6 tumors; large tumors", "result": "responses were seen in 2 large"}, {"measurement": "tumors fully ablated", "setting": "[7]", "result": "IL RB fully ablated 5/5 tumors 24"}, {"measurement": "Kp", "setting": "[8]; phosphate buffered saline, pH 7.4", "result": 11.5}, {"measurement": "Kp", "setting": "[8]; solution without phosphate buffer (unbuffered), absence of phosphate buffer, pH between about 6 to about 6.5", "result": 66.7}, {"measurement": "half-life of RB in the murine blood stream", "setting": "[9]", "result": "approximately 30 min"}, {"measurement": "excretion", "setting": "[10]; bile", "result": "rapidly excreted from the bile in unmetabolized form"}, {"measurement": "removal from the blood", "setting": "[10]; blood", "result": "almost exclusively removed from the blood by the liver"}]}]}
